Laboratory results published in patent US11214803B2, “Modulators of YAP1 expression” (Ionis Pharmaceuticals, Inc., priority 2019, dated 2022).
Strand notation (5' to 3'): a small letter for the sugar, then the base; units joined by * are phosphorothioate-linked, units joined directly phosphodiester-linked; [ ] holds rarer units or linkages, { } end groups; capitals alone tell only the bases. k = constrained ethyl (cEt); [5mC] = 5-methylcytosine; d = 2'-deoxy (DNA)

System: Yap1 mRNA
Assay: Antisense inhibition of human Yap1 in A-431 cells by cEt gapmers, single dose (Example 2, RTS4814)
Type: cell-based
How it was run: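 A-431 cells (5,000/well) received 2,000 nM oligonucleotide by free uptake for about 48 h. Yap1 mRNA was then quantified by RT-qPCR with primer probe set RTS4814, normalized to RIBOGREEN total RNA, and reported as % of untreated control; asterisked values mark oligos inside the amplicon.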

[1] = Table 32, Yap1 mRNA, percent of untreated control, 3-10-3 cEt gapmers targeting SEQ ID NO.: 1, and 2
[2] = Table 25, Yap1 mRNA as percent of untreated control, 3-10-3 cEt gapmers targeting SEQ ID NO.: 1, and 2
[3] = Table 5, A-431 cells, 5,000 cells per well, free uptake, 2,000 nM modified oligonucleotide, approx. 48 hours, RTS4814, normalized to RIBOGREEN, Yap1 mRNA relative to untreated control cells
[4] = Table 21, Yap1 mRNA, percent of untreated control, 3-10-3 cEt gapmers targeting SEQ ID NO.: 1 and 2
[5] = Table 6, A-431 cells, 5,000 cells per well, free uptake, 2,000 nM modified oligonucleotide, approx. 48 hours, RTS4814, normalized to RIBOGREEN, Yap1 mRNA relative to untreated control cells
[6] = Table 24, Yap1 mRNA as percent of untreated control, 3-10-3 cEt gapmers targeting SEQ ID NO.: 1, and 2
[7] = Table 23, Yap1 mRNA as percent of untreated control, 3-10-3 cEt gapmers, single dose
[8] = Table 22, Yap1 mRNA as percent of untreated control, 3-10-3 cEt gapmers, single dose
[9] = A-431 cells, 5,000 cells per well, free uptake, 2,000 nM modified oligonucleotide, approx. 48 hours, RTS4814, normalized to RIBOGREEN, Table 4, asterisk (*) = targets amplicon region of primer probe set
[10] = Table 20, Yap1 mRNA, percent of untreated control, 3-10-3 cEt gapmers targeting SEQ ID NO.: 1 and 2
[11] = Table 33, Yap1 mRNA, percent of untreated control, 3-10-3 cEt gapmers targeting SEQ ID NO.: 1, and 2

1075858 (antisense k[5mC]*k[5mC]*kT*dT*dA*dA*dA*d[5mC]*dA*dA*dT*d[5mC]*d[5mC]*k[5mC]*kT*kA) [compound 1075858]
YAP1 (% UTC) [1]: 23 % UTC

1074155 (antisense k[5mC]*k[5mC]*k[5mC]*dG*dG*d[5mC]*dT*d[5mC]*d[5mC]*dA*d[5mC]*dG*dG*kG*k[5mC]*k[5mC]) [Compound 1074155]
YAP1 (% UTC) [2]: 87 % UTC

716530 (antisense kA*k[5mC]*kA*dT*d[5mC]*dA*dA*dG*dG*d[5mC]*dT*dA*dT*kG*kA*kT) [Compound 716530]
YAP1 (% UTC) [3]: 83 % UTC

1074951 (antisense k[5mC]*kA*kT*d[5mC]*dA*dG*dG*dT*dT*dA*dA*dG*dT*kG*kA*kT) [Compound 1074951]
YAP1 (% UTC) [4]: 85 % UTC

716549 (k[5mC]*k[5mC]*kA*d[5mC]*dT*dT*dT*dT*dG*d[5mC]*dA*dA*dT*kG*kT*kT; antisense) [Compound 716549]
YAP1 (% UTC) [5]: 44 % UTC

716569 (k[5mC]*kT*k[5mC]*d[5mC]*dT*dT*dA*dA*d[5mC]*d[5mC]*d[5mC]*dG*dG*kG*kT*kT; antisense) [Compound 716569]
YAP1 (% UTC) [3]: 115 % UTC

1075114 (antisense kG*kT*kA*dT*dA*dA*dA*dT*dA*d[5mC]*d[5mC]*dA*dG*kG*kT*kA) [Compound 1075114]
YAP1 (% UTC) [6]: 26 % UTC

1076043 (k[5mC]*kA*kA*dA*dA*dA*dG*dG*d[5mC]*dT*dA*dT*dT*kG*kA*kG; antisense) [Compound 1076043]
YAP1 (% UTC) [2]: 36 % UTC

1075307 (kA*kT*kT*dA*dA*dA*d[5mC]*dG*dA*dA*dA*d[5mC]*dA*k[5mC]*kG*kG; antisense) [Compound 1075307]
YAP1 (% UTC) [2]: 28 % UTC

1074314 (antisense kA*kT*kT*dG*dA*dT*dA*dT*dT*d[5mC]*d[5mC]*dG*d[5mC]*kA*kT*kT) [Compound 1074314]
YAP1 (% UTC) [6]: 12 % UTC

716405 (kT*kG*kT*dT*dA*dA*dG*dG*dA*dA*dA*dG*dG*kA*kT*k[5mC]; antisense) [Compound 716405]
YAP1 (% UTC) [5]: 149 % UTC

716455 (kG*kT*kT*dA*dT*dG*dT*dT*dT*dG*dG*dG*dT*kG*kT*kG; antisense) [Compound 716455]
YAP1 (% UTC) [3]: 17 % UTC

1074249 (antisense kT*kG*kA*dT*d[5mC]*dG*dA*dT*dG*dT*dG*dA*dT*kT*kT*kA) [Compound 1074249]
YAP1 (% UTC) [7]: 23 % UTC

1076267 (kA*kT*kT*dT*dA*dA*dG*dG*dT*dG*d[5mC]*dA*dT*kA*kA*kG; antisense) [Compound 1076267]
YAP1 (% UTC) [2]: 13 % UTC

716461 (kA*kT*kA*dA*dA*d[5mC]*dT*dA*d[5mC]*dT*dA*dG*dT*k[5mC]*kA*kT; antisense) [Compound 716461]
YAP1 (% UTC) [3]: 123 % UTC

716464 (kT*kA*k[5mC]*dT*dT*d[5mC]*dA*dA*dA*d[5mC]*dA*dT*d[5mC]*kT*kG*k[5mC]; antisense) [Compound 716464]
YAP1 (% UTC) [3]: 62 % UTC

1076137 (k[5mC]*kA*k[5mC]*d[5mC]*dA*dA*d[5mC]*dA*dA*d[5mC]*d[5mC]*dT*d[5mC]*kA*kT*kG; antisense) [Compound 1076137]
YAP1 (% UTC) [7]: 45 % UTC

1074704 (antisense k[5mC]*kA*k[5mC]*dG*dG*dT*dG*dT*dA*dA*dG*dA*d[5mC]*kA*kA*kG) [compound 1074704]
YAP1 (% UTC) (Yap1 mRNA as percent of untreated control, A-431 cells, 3-10-3 cEt gapmers targeting SEQ ID NO.: 1, and 2, Table 30): 16 % UTC

1074632 (antisense kT*k[5mC]*kA*dT*dA*dG*d[5mC]*dA*dG*d[5mC]*dT*dT*dT*kT*kG*k[5mC]) [Compound 1074632]
YAP1 (% UTC) [8]: 12 % UTC

716460 (kT*kA*kT*dT*d[5mC]*dT*dA*dA*dA*dT*dG*d[5mC]*dA*kT*kA*k[5mC]; antisense) [Compound 716460]
YAP1 (% UTC) [9]: 86 % UTC

1074569 (antisense kT*kG*kA*dA*d[5mC]*d[5mC]*dT*dA*d[5mC]*dT*d[5mC]*dA*d[5mC]*kT*kG*kA) [Compound 1074569]
YAP1 (% UTC) [7]: 8 % UTC

1075211 (antisense kA*kA*kT*dA*dA*dA*dG*dG*dG*dT*d[5mC]*d[5mC]*dT*kA*kA*k[5mC]) [Compound 1075211]
YAP1 (% UTC) [2]: 91 % UTC

1075014 (antisense kG*kG*kA*dG*dA*dA*dA*dT*dA*dA*dA*dA*dG*kT*k[5mC]*kG) [Compound 1075014]
YAP1 (% UTC) [10]: 46 % UTC

1075113 (antisense kT*kA*kT*dA*dA*dA*dT*dA*d[5mC]*d[5mC]*dA*dG*dG*kT*kA*k[5mC]) [Compound 1075113]
YAP1 (% UTC) [7]: 67 % UTC

716542 (antisense k[5mC]*kT*kT*d[5mC]*d[5mC]*d[5mC]*dT*dG*dT*dG*dT*dT*d[5mC]*kA*kT*kT) [Compound 716542]
YAP1 (% UTC) [3]: 45 % UTC

1076147 (kA*kT*kT*dA*dA*d[5mC]*dT*d[5mC]*dA*d[5mC]*dG*dA*dA*kG*kA*k[5mC]; antisense) [compound 1076147]
YAP1 (% UTC) [11]: 25 % UTC

716403 (k[5mC]*k[5mC]*kG*dG*dG*dA*dG*dA*dA*dG*dA*d[5mC]*dA*k[5mC]*kT*kG; antisense) [Compound 716403]
YAP1 (% UTC) [9]: 110 % UTC

1075270 (antisense k[5mC]*kT*kT*dT*dA*dT*dT*dA*dA*d[5mC]*d[5mC]*dT*dG*kG*kA*kG) [Compound 1075270]
YAP1 (% UTC) [10]: 18 % UTC

1074129 (k[5mC]*k[5mC]*k[5mC]*dG*dG*d[5mC]*dT*d[5mC]*d[5mC]*dA*d[5mC]*dT*dG*kG*kT*k[5mC]; antisense) [compound 1074129]
YAP1 (% UTC) (Yap1 mRNA as percent of untreated control, A-431 cells, 3-10-3 cEt gapmers targeting SEQ ID NO.: 1, and 2, Table 31): 77 % UTC

1074762 (kG*k[5mC]*kT*dA*d[5mC]*d[5mC]*d[5mC]*dA*dA*dT*dA*d[5mC]*dA*kA*k[5mC]*k[5mC]; antisense) [Compound 1074762]
YAP1 (% UTC) [6]: 6 % UTC

1074643 (antisense kT*kT*kG*dA*dA*dG*dG*dG*d[5mC]*d[5mC]*dA*dA*dA*kA*kT*kA) [compound 1074643]
YAP1 (% UTC) [11]: 68 % UTC

716435 (kA*k[5mC]*kA*dA*d[5mC]*dT*dG*dT*dT*dG*dA*dA*d[5mC]*kA*kA*kA; antisense) [Compound 716435]
YAP1 (% UTC) [5]: 45 % UTC

1075849 (k[5mC]*kT*kA*dG*dA*dA*d[5mC]*dA*d[5mC]*dG*d[5mC]*dT*dG*kA*kT*kG; antisense) [Compound 1075849]
YAP1 (% UTC) [7]: 55 % UTC

1075176 (antisense kA*kA*kT*dT*dA*d[5mC]*d[5mC]*d[5mC]*dG*dG*dG*dA*dA*k[5mC]*kT*kA) [Compound 1075176]
YAP1 (% UTC) [8]: 70 % UTC

1075147 (antisense kT*kA*kT*dA*dA*dA*d[5mC]*d[5mC]*dT*dT*dA*d[5mC]*dA*kG*kT*kA) [Compound 1075147]
YAP1 (% UTC) [2]: 57 % UTC

716570 (kA*kA*kG*dT*dG*dT*dT*dT*dA*dG*dG*d[5mC]*dA*kA*kG*k[5mC]; antisense) [Compound 716570]
YAP1 (% UTC) [5]: 56 % UTC

1074505 (kA*kA*kT*d[5mC]*dG*dA*dG*dA*dT*dT*dT*dA*dA*kA*kT*kA; antisense) [Compound 1074505]
YAP1 (% UTC) [7]: 83 % UTC

1074919 (antisense k[5mC]*kT*k[5mC]*dA*dA*dG*dT*dT*dA*d[5mC]*dA*dT*d[5mC]*k[5mC]*k[5mC]*kG) [Compound 1074919]
YAP1 (% UTC) [4]: 48 % UTC

1076228 (kA*kT*kT*dA*dA*d[5mC]*d[5mC]*dT*d[5mC]*dA*dG*dT*dG*kA*kG*k[5mC]; antisense) [Compound 1076228]
YAP1 (% UTC) (Table 18, A-431 cells, 5,000 cells per well, free uptake, 2,000 nM modified oligonucleotide, approx. 48 hours, RTS4814, normalized to RIBOGREEN, Yap1 mRNA as percent of untreated control): 69 % UTC

716528 (antisense kT*kT*kA*dG*dG*dT*d[5mC]*dT*d[5mC]*d[5mC]*dT*dT*d[5mC]*kA*kG*kG) [Compound 716528]
YAP1 (% UTC) [5]: 70 % UTC

1076517 (antisense k[5mC]*kA*kT*dA*dA*dT*dA*dA*dG*dA*d[5mC]*dT*dA*kA*kA*k[5mC]) [Compound 1076517]
YAP1 (% UTC) (Table 19, A-431 cells, 5,000 cells per well, free uptake, 2,000 nM modified oligonucleotide, approx. 48 hours, RTS4814, normalized to RIBOGREEN, Yap1 mRNA as percent of untreated control): 102 % UTC

716458 (kA*kA*kG*d[5mC]*dA*dG*dG*dG*dA*dA*dA*d[5mC]*d[5mC]*kT*kA*kA; antisense) [Compound 716458]
YAP1 (% UTC) [3]: 94 % UTC

1075986 (kG*kA*kA*dT*dA*dT*d[5mC]*dG*dA*dA*dA*dA*dG*k[5mC]*kA*kA; antisense) [compound 1075986]
YAP1 (% UTC) [1]: 26 % UTC

716539 (antisense kA*kA*kT*dA*dG*dT*dG*d[5mC]*dT*dT*dT*dG*dG*kA*kA*kG) [Compound 716539]
YAP1 (% UTC) [3]: 59 % UTC

1074283 (antisense kA*kA*kA*dA*d[5mC]*dG*dA*dG*dG*dG*dT*d[5mC]*dA*kA*kG*k[5mC]) [Compound 1074283]
YAP1 (% UTC) [2]: 12 % UTC
